Measurements from EP3771464A1, “PEPTIDES AS INHIBITOR OF FIBROTIC MATRIX ACCUMULATION” (Max-Planck-Gesellschaft zur Förderung der Wissenschaften …, priority 2019, dated 2021).
Entries after “also recorded” stand apart in the source; their conditions may differ. Residues, ends and D or L forms follow the SMILES beside them. No end group written: not given here.

How the values were obtained:
CCl4-treated mice = assay: CCl4 induced liver fibrosis in mice, collagen in the liver as marker of matrix accumulation; format: in vivo; conditions: peptides 25 mg/kg/mouse/day intraperitoneal, daily from day 32 for 10 days
Procedure: Figure 1 Prevention of fibrosis progression by proline-containing cyclic and amidated linear peptides. Mice were injected for 6 weeks with CCl4 in order to induce liver fibrosis. Starting on day 32 the mice received daily intraperitoneal injections of 25 mg/kg/mouse/day of the peptides in 0.9% NaCl for a total of 10 days. CCl4-treated mice also received NaCl 0.9%. The healthy control group (CT) only received 0.9% NaCl. N= 4/ 10/ 8/ 5/ 10/ 8/ 11/ 7 in two experiments. The following peptides were tested on CCl4-treated mice: cyclic Pro-Gly-Leu-Gln-Gly-Glu (Cyclic PGLQGE), and compared to two controls: cyclic Pro-Gly-Leu-Asn-Gly-Glu (Cyclic CT1+P: cyclic PGLNGE) and cyclic Pro-Gly-Leu-Hyp-Gly-Glu (Cyclic CT2+P: cyclic PGLOGE). Linear Gly-Leu-Gln-Gly-Glu-NH2 (Linear GLQGE-NH2) was also tested and compared to two controls: linear Gly-Leu-Asn-Gly-Glu-NH2 (Linear CT1-NH2: linear GLNGE-NH2) and linear Gly-Leu-Hyp-Gly-Glu-NH2 (Linear CT2-NH2: linear GLOGE-NH2). *p<0.05. Evaluated by t-test. Data presented as mean +/- SEM. Figure 2 Prevention of fibrosis progression by cyclic peptides and acetylated linear peptides. Mice were injected for 6 weeks with CCl4 in order to induce liver fibrosis. Starting on day 32 the mice received daily intraperitoneal injections of 25 mg/kg/mouse/day of the peptides in 0.9% NaCl for a total of 10 days. CCl4-treated mice also received NaCl 0.9%. The healthy control group (CT) only received 0.9% NaCl. N= 5/ 18/ 9/ 9/ 6/ 5/ 4/ 4 in two experiments. The following peptides were tested on CCl4-treated mice: cyclic Gly-Leu-Gln-Gly-Glu (Cyclic GLQGE), and compared to two controls: cyclic Gly-Leu-Asn-Gly-Glu (Cyclic CT1: cyclic GLNGE) and cyclic Gly-Leu-Hyp-Gly-Glu (Cyclic CT2: cyclic GLOGE). Linear Ac-Gly-Leu-Gln-Gly-Glu (Linear Ac-GLQGE) was also tested and compared to two controls: linear Ac-Gly-Leu-Asn-Gly-Glu (Linear Ac-CT1: linear Ac-GLNGE) and linear Ac-Gly-Leu-Hyp-Gly-Glu (Linear Ac-CT2: linear Ac-GLOGE). *p<0.05, **p<0.005. Evaluated by t-test. Data presented as mean +/- SEM.
Mice were injected for 6 weeks with CCl4 in order to induce liver fibrosis. Starting on day 32 the mice received daily intraperitoneal injections of the peptides at a final dose of 25 mg/kg/mouse/day diluted in NaCl 0.9% for a total of 10 days. In these experiments, the following peptides were tested: cyclic peptide Pro-Gly-Leu-Gln-Gly-Glu, cyclic peptide Pro-Gly-Leu-Asn-Gly-Glu, cyclic peptide Pro-Gly-Leu-Hyp-Gly-Glu, linear peptide Gly-Leu-Gln-Gly-Glu-NH2, linear peptide Gly-Leu-Asn-Gly-Glu-NH2, linear peptide Gly-Leu-Hyp-Gly-Glu-NH2.
Mice were injected for 6 weeks with CCl4 in order to induce liver fibrosis. Starting on day 32 the mice received daily intraperitoneal injections of the peptides at a final dose of 25 mg/kg/mouse/day diluted in NaCl 0.9% for a total of 10 days. In these experiments, the following peptides were tested: cyclic peptide Gly-Leu-Gln-Gly-Glu, cyclic peptide Gly-Leu-Asn-Gly-Glu, cyclic peptide Gly-Leu-Hyp-Gly-Glu, linear peptide Ac-Gly-Leu-Gln-Gly-Glu, linear peptide Ac-Gly-Leu-Asn-Gly-Glu, linear peptide Ac-Gly-Leu-Hyp-Gly-Glu.

TGFβ = assay: unstimulated TGFβ expression in murine hepatocytes (data not shown); format: cell-based
[1] = Example 2, Figure 1, CCl4 for 6 weeks
[2] = Example 3, Figure 2, CCl4 for 6 weeks

In the case of `CC(C)C[C@@H]1NC(=O)CNC(=O)[C@@H]2CCCN2C(=O)[C@H](CCC(=O)O)NC(=O)CNC(=O)[C@H](CC(N)=O)NC1=O` [Cyclic CT1+P, Pro-Gly-Leu-Asn-Gly-Glu] (HELM PEPTIDE1{E.P.G.L.N.G}$PEPTIDE1,PEPTIDE1,1:R1-6:R2$$$V2.0), the collagen accumulation (CCl4-treated mice; [1]) is reported as “neither the cyclic forms of the control peptides (with Pro: Pro-Gly-Leu-Asn-Gly-Glu or Pro-Gly-Leu-Hyp-Gly-Glu) nor the linear forms of the control peptides Gly-Leu-Asn-Gly-Glu-NH2 and Gly-Leu-Hyp-Gly-Glu-NH2 were able to reduce collagen amount in the liver”.

For `CC(C)C[C@@H]1NC(=O)CNC(=O)[C@H](CCC(=O)O)NC(=O)CNC(=O)[C@H](CC(N)=O)NC1=O` [Cyclic CT1, Gly-Leu-Asn-Gly-Glu] (HELM PEPTIDE1{E.G.L.N.G}$PEPTIDE1,PEPTIDE1,1:R1-5:R2$$$V2.0), the collagen accumulation (CCl4-treated mice; [2]) was “failed to inhibit collagen accumulation”.

`CC(C)C[C@@H]1NC(=O)CNC(=O)[C@@H]2CCCN2C(=O)[C@H](CCC(=O)O)NC(=O)CNC(=O)[C@@H]2C[C@@H](O)CN2C1=O` [Cyclic CT2+P, Pro-Gly-Leu-Hyp-Gly-Glu] (HELM PEPTIDE1{E.P.G.L.[Hyp].G}$PEPTIDE1,PEPTIDE1,1:R1-6:R2$$$V2.0) was tested, and the collagen accumulation (CCl4-treated mice; [1]) was “neither the cyclic forms of the control peptides (with Pro: Pro-Gly-Leu-Asn-Gly-Glu or Pro-Gly-Leu-Hyp-Gly-Glu) nor the linear forms of the control peptides Gly-Leu-Asn-Gly-Glu-NH2 and Gly-Leu-Hyp-Gly-Glu-NH2 were able to reduce collagen amount in the liver”.

In the case of `CC(C)C[C@@H]1NC(=O)CNC(=O)[C@H](CCC(=O)O)NC(=O)CNC(=O)[C@@H]2C[C@@H](O)CN2C1=O` [Cyclic CT2, Gly-Leu-Hyp-Gly-Glu] (HELM PEPTIDE1{E.G.L.[Hyp].G}$PEPTIDE1,PEPTIDE1,1:R1-5:R2$$$V2.0), the collagen accumulation (CCl4-treated mice; [2]) is reported as “failed to inhibit collagen accumulation”.

For `CC(C)C[C@@H]1NC(=O)CNC(=O)[C@H](CCC(=O)O)NC(=O)CNC(=O)[C@H](CCC(N)=O)NC1=O` [Cyclic GLQGE, Gly-Leu-Gln-Gly-Glu] (HELM PEPTIDE1{E.G.L.Q.G}$PEPTIDE1,PEPTIDE1,1:R1-5:R2$$$V2.0), the collagen accumulation (CCl4-treated mice; [2]) was “larger inhibitory effect compared to the linear Gly-Leu-Gln-Gly-Glu-NH2 or Ac-Gly-Leu-Gln-Gly-Glu” and the collagen accumulation (CCl4-treated mice; Example 3, Figure 2, CCl4 for 6 weeks, listed as cyclic peptide Gly-Leu-Gln-Gly-Glu) was “able to significantly reduce collagen accumulation; also recorded: more efficient in reducing collagen accumulation also in comparison to the cyclic peptide with proline Pro-Gly-Leu-Gln-Gly-Glu”.

In the case of `CC(C)C[C@@H]1NC(=O)CNC(=O)[C@@H]2CCCN2C(=O)[C@H](CCC(=O)O)NC(=O)CNC(=O)[C@H](CCC(N)=O)NC1=O` [Cyclic PGLQGE, Pro-Gly-Leu-Gln-Gly-Glu] (HELM PEPTIDE1{E.P.G.L.Q.G}$PEPTIDE1,PEPTIDE1,1:R1-6:R2$$$V2.0), the collagen accumulation (CCl4-treated mice; [1]) is reported as “able to significantly reduce collagen accumulation”.

In the case of `CC(=O)NCC(=O)N[C@@H](CC(C)C)C(=O)N1C[C@H](O)C[C@H]1C(=O)NCC(=O)N[C@@H](CCC(=O)O)C(=O)O` [Linear Ac-CT2, Ac-Gly-Leu-Hyp-Gly-Glu], the collagen accumulation (CCl4-treated mice; [2]) is reported as “neither the cyclic forms nor the linear forms of the peptides Ac-Gly-Leu-Asn-Gly-Glu and Ac-Gly-Leu-Hyp-Gly-Glu were able to reduce collagen amount in the liver”.

With `CC(C)C[C@H](NC(=O)CN)C(=O)N1C[C@H](O)C[C@H]1C(=O)NCC(=O)N[C@@H](CCC(=O)O)C(N)=O` [Linear CT2-NH2, Gly-Leu-Hyp-Gly-Glu-NH2] the “unstimulated TGFβ expression” value (TGFβ) was “had no effect”.

“Ac-GLNGE [Linear Ac-CT1, Ac-Gly-Leu-Asn-Gly-Glu]” was tested, and the collagen accumulation (CCl4-treated mice; [2]) was “neither the cyclic forms nor the linear forms of the peptides Ac-Gly-Leu-Asn-Gly-Glu and Ac-Gly-Leu-Hyp-Gly-Glu were able to reduce collagen amount in the liver”.

“Ac-GLQGE [Linear Ac-GLQGE, Ac-Gly-Leu-Gln-Gly-Glu]” was tested, and the collagen accumulation (CCl4-treated mice; [2]) was “able to significantly reduce CCl4-induced collagen accumulation”.

In the case of “GLNGE-NH2 [Linear CT1-NH2, Gly-Leu-Asn-Gly-Glu-NH2]”, the “unstimulated TGFβ expression” value (TGFβ) is reported as “had no effect”.

For “GLQGE-NH2 [Linear GLQGE-NH2, Gly-Leu-Gln-Gly-Glu-NH2]”, the collagen accumulation (CCl4-treated mice; [1]) was “able to significantly reduce CCl4-induced collagen accumulation” and the “unstimulated TGFβ expression” value (TGFβ) was “efficiently inhibits unstimulated TGFβ expression in murine hepatocytes”.
